Experimental data published in doi:10.1101/2023.10.20.563248v1 (biorxiv, 2023).

What was measured:
[1] = target: LIMK1 (Homo sapiens, UniProt P53667); assay: NanoBRET tracer displacement, HEK293T; assay type: cell-based; settings: intact cells; […] °C, […] h; competitive with tracer
[2] = target: BRSK1 (Homo sapiens, UniProt Q8TDC3); settings: 1 µM; inhibitor
[3] = target: CAMK2D (Homo sapiens, UniProt Q13557); settings: 1 µM; inhibitor
[4] = target: CDK18 (Homo sapiens, UniProt Q07002); settings: 1 µM; inhibitor
[5] = target: CDK20 (Homo sapiens, UniProt Q8IZL9); settings: 1 µM; inhibitor
Sequence of CDK20 (Q8IZL9 whole entry): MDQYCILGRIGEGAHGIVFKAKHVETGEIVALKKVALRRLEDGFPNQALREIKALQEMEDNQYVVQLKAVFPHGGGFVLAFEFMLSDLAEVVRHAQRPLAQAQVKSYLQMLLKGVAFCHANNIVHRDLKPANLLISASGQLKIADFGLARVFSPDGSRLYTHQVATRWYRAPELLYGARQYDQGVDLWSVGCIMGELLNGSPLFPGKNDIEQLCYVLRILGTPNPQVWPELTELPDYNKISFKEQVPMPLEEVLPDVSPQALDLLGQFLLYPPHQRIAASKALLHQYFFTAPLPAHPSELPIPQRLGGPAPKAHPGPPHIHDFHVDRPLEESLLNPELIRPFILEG

[6] = target: CDK4/CycD3 (Homo sapiens, UniProt P11802); settings: 1 µM; inhibitor
Sequence of CDK4/CycD3 (P11802 whole entry): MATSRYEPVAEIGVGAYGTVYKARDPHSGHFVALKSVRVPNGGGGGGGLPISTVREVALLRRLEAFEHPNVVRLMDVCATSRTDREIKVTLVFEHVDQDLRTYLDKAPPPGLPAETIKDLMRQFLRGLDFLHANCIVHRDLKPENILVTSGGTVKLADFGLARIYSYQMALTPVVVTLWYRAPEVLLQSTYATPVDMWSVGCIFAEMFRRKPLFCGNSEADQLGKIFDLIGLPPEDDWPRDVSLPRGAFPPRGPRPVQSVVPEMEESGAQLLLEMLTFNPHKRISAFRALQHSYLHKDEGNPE
Sequence of CDK4/CycD3 (P30281 whole entry partner): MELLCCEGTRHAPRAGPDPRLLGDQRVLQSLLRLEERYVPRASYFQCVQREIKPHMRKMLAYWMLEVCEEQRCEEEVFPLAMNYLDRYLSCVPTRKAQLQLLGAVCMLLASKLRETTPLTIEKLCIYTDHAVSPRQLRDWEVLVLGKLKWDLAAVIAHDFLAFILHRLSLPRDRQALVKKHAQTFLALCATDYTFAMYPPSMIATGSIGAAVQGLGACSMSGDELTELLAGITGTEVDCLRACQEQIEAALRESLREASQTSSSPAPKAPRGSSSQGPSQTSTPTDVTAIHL

[7] = target: CK1d (Homo sapiens, UniProt P48730); settings: 1 µM; inhibitor
Sequence of CK1d (P48730 whole entry): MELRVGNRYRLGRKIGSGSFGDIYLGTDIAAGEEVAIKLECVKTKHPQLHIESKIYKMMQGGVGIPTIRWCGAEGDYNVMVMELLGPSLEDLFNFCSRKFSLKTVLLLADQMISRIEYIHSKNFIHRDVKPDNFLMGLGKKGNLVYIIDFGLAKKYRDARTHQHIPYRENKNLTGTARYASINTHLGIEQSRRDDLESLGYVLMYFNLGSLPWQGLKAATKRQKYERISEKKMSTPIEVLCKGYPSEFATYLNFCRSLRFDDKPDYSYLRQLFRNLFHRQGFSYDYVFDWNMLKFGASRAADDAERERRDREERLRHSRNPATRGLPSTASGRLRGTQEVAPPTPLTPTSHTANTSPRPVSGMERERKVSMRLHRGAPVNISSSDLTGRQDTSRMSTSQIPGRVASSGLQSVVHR

[8] = target: CSK (Homo sapiens, UniProt P41240); settings: 1 µM; inhibitor
[9] = target: EPHB2 (Homo sapiens, UniProt P29323); settings: 1 µM; inhibitor
[10] = target: FGFR4 (Homo sapiens, UniProt P22455); settings: 1 µM; inhibitor
[11] = target: IKKe (Homo sapiens, UniProt Q14164); settings: 1 µM; inhibitor
[12] = target: JNK3 (Homo sapiens, UniProt P53779); settings: 1 µM; inhibitor
[13] = target: MAP3K1 (Homo sapiens, UniProt Q13233); settings: 1 µM; inhibitor
Sequence of MAP3K1 (Q13233 whole entry): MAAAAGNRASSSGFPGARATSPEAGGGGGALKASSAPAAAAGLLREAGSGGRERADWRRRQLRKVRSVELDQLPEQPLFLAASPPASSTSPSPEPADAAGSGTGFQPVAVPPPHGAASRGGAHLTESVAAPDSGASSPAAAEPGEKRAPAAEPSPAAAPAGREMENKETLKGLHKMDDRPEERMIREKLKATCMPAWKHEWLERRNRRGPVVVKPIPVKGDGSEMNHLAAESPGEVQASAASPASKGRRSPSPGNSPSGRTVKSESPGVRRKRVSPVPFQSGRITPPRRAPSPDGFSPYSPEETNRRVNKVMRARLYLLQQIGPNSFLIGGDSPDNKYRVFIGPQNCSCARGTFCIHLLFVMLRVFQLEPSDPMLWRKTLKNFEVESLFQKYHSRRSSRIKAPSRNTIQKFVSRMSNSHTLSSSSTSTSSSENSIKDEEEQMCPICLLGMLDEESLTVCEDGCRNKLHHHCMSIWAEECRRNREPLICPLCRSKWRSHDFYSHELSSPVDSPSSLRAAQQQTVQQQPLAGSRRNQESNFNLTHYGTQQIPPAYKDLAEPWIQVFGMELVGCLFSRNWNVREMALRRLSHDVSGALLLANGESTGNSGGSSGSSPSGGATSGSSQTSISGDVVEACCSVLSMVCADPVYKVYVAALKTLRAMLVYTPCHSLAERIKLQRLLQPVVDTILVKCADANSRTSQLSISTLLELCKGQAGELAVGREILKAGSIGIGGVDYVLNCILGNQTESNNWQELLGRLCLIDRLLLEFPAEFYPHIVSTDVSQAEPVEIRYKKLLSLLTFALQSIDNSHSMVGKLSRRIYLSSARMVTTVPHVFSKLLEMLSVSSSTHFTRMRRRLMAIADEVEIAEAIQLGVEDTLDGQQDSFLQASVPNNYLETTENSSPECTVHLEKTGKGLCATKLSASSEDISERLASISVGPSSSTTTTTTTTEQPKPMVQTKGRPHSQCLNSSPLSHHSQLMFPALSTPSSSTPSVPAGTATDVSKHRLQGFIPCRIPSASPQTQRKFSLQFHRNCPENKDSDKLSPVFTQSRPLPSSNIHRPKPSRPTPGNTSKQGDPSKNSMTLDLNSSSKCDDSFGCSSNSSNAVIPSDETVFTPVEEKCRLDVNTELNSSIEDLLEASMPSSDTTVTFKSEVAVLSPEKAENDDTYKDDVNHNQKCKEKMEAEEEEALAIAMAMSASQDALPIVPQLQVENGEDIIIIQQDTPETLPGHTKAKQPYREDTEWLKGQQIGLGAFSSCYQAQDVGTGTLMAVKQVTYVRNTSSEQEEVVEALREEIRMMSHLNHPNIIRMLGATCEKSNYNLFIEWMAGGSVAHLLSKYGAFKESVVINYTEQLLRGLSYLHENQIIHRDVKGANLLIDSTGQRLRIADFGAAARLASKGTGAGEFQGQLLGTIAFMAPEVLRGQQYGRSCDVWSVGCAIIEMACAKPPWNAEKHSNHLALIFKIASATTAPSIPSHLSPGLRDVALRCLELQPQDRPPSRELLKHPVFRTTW

[14] = target: MAP3K11 (Homo sapiens, UniProt Q16584); settings: 1 µM; inhibitor
[15] = target: MAP4K5 (Homo sapiens, UniProt Q9Y4K4); settings: 1 µM; inhibitor
[16] = target: MARK3 (Homo sapiens, UniProt P27448); settings: 1 µM; inhibitor
Sequence of MARK3 (P27448 whole entry): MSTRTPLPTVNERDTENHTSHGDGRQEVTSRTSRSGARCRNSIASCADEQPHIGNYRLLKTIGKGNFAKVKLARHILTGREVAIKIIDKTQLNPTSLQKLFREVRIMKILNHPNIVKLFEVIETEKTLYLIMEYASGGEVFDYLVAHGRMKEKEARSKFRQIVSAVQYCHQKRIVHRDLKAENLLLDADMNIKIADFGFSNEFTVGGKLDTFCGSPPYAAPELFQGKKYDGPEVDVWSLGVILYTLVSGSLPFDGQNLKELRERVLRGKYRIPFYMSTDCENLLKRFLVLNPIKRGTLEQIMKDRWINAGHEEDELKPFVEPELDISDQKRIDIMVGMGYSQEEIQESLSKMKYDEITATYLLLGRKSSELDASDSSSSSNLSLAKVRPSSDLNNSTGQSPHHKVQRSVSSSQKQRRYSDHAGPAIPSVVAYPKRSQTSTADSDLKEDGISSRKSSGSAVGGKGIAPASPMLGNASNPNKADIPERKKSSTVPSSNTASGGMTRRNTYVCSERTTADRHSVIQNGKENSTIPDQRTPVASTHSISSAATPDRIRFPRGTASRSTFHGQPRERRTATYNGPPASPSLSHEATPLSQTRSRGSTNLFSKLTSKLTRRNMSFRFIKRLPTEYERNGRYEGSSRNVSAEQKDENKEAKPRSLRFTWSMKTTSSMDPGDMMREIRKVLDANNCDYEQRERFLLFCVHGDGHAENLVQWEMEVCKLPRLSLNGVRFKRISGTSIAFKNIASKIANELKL

[17] = target: MERTK (Homo sapiens, UniProt Q12866); settings: 1 µM; inhibitor
[18] = target: MST2 (Homo sapiens, UniProt Q13188); settings: 1 µM; inhibitor
[19] = target: NEK3 (Homo sapiens, UniProt P51956); settings: 1 µM; inhibitor
Sequence of NEK3 (P51956 whole entry): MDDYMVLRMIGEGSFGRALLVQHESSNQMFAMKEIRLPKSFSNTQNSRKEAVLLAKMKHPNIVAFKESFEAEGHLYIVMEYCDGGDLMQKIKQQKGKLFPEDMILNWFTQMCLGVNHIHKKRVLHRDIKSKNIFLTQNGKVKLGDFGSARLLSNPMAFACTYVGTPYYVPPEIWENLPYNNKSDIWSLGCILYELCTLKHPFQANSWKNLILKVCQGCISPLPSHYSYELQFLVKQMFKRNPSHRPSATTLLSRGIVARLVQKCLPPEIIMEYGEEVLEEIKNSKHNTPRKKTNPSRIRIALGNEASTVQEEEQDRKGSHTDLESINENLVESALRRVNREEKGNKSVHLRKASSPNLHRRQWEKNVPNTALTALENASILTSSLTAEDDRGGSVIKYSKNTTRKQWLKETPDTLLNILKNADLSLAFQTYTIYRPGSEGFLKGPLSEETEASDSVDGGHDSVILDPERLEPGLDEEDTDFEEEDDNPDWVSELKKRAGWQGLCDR

[20] = target: PKA (Homo sapiens, UniProt P17612); settings: 1 µM; inhibitor
[21] = target: SYK (Homo sapiens, UniProt P43405); settings: 1 µM; inhibitor
[22] = target: TTK (Homo sapiens, UniProt P33981); settings: 1 µM; inhibitor
Sequence of TTK (P33981 whole entry): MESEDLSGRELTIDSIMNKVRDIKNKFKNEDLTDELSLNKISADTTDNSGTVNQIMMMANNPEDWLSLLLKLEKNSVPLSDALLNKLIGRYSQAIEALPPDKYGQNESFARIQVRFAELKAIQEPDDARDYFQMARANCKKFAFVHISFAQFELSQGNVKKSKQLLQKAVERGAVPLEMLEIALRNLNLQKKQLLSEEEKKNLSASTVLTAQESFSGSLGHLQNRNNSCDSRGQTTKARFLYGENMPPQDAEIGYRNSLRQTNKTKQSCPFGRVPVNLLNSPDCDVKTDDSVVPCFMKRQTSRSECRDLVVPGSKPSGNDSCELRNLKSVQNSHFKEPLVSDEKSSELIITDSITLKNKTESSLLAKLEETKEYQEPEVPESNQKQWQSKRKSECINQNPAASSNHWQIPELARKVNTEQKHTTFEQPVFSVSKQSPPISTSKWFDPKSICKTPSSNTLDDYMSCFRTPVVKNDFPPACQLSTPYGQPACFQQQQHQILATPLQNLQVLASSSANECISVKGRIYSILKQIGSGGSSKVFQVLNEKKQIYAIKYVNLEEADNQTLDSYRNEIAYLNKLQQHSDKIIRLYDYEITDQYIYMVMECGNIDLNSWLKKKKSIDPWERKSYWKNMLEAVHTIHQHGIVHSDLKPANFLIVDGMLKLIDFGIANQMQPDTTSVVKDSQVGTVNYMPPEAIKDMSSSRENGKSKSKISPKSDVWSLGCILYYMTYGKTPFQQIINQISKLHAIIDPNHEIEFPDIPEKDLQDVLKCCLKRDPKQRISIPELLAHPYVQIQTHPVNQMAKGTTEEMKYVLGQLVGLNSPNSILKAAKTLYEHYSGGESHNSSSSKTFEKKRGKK

[23] = target: p38a (Homo sapiens, UniProt Q16539); settings: 1 µM; inhibitor
[24] = target: p38d (Homo sapiens, UniProt O15264); settings: 1 µM; inhibitor

Q: How did the EC50 [1] turn out when `O=C1NCCCCCNc2nc(c3ccccc3n2)Nc2cc1[nH]n2` [21c, (Z)-3^1H-2,5,11-triaza-1(4,2)-quinazolina-3(3,5)-pyrazolacycloundecaphan-4-one] was run?
A: 5.67 ± 1.02 µM

Q: And the “21c Remaining activity, percent of control [%]” value [2]?
A: 112.9%

Q: And the “21c Remaining activity, percent of control [%]” value [3]?
A: 95.0%

Q: What about the “21c Remaining activity, percent of control [%]” value [4] of the same molecule?
A: 96.7%

Q: And the “21c Remaining activity, percent of control [%]” value [5]?
A: 84.4%

Q: And the “21c Remaining activity, percent of control [%]” value [6]?
A: 111.1%

Q: What about the “21c Remaining activity, percent of control [%]” value [7] of the same molecule?
A: 98.8%

Q: What about the “21c Remaining activity, percent of control [%]” value [8] of the same molecule?
A: 73.5%

Q: And the “21c Remaining activity, percent of control [%]” value [9]?
A: 100.1%

Q: And the “21c Remaining activity, percent of control [%]” value [10]?
A: 96.9%

Q: And the “21c Remaining activity, percent of control [%]” value [11]?
A: 103.6%

Q: What about the “21c Remaining activity, percent of control [%]” value [12] of the same molecule?
A: 84.9%

Q: What about the “21c Remaining activity, percent of control [%]” value [13] of the same molecule?
A: 100.1%

Q: And the “21c Remaining activity, percent of control [%]” value [14]?
A: 45.8%

Q: And the “21c Remaining activity, percent of control [%]” value [15]?
A: 78.8%

Q: What about the “21c Remaining activity, percent of control [%]” value [16] of the same molecule?
A: 101.1%

Q: And the “21c Remaining activity, percent of control [%]” value [17]?
A: 44.2%

Q: What about the “21c Remaining activity, percent of control [%]” value [18] of the same molecule?
A: 95.6%

Q: And the “21c Remaining activity, percent of control [%]” value [19]?
A: 94.1%

Q: And the “21c Remaining activity, percent of control [%]” value [20]?
A: 96.3%

Q: And the “21c Remaining activity, percent of control [%]” value [21]?
A: 99.7%

Q: What about the “21c Remaining activity, percent of control [%]” value [22] of the same molecule?
A: 97.7%

Q: What about the “21c Remaining activity, percent of control [%]” value [23] of the same molecule?
A: 92.7%

Q: What about the “21c Remaining activity, percent of control [%]” value [24] of the same molecule?
A: 94.8%
